# Assay results from patent publication US10227388B2, “Peptides and combination of peptides for use in immunotherapy against non-small cell lung cancer and other cancers” (immatics biotechnologies GmbH, priority 2015, dated 2019).
# Legend:
# CD8+ T cells = test: In vitro immunogenicity: T-cell priming with artificial antigen presenting cells loaded with peptide/MHC complexes and anti-CD28 antibody, multimer readout; type: cell-based, human; details: for Wells positive [%]: HLA-A*02 restricted peptides, positive wells among evaluable
# Method: In an aspect, the peptides are pre-screened for immunogenicity before being included in the warehouse. By way of example, and not limitation, the immunogenicity of the peptides included in the warehouse is determined by a method comprising in vitro T-cell priming through repeated stimulations of CD8+ T cells from healthy donors with artificial antigen presenting cells loaded with peptide/MHC complexes and anti-CD28 antibody.
# In order to obtain information regarding the immunogenicity of the TUMAPs of the present invention, the inventors performed investigations using an in vitro T-cell priming assay based on repeated stimulations of CD8+ T cells with artificial antigen presenting cells (aAPCs) loaded with peptide/MHC complexes and anti-CD28 antibody.
# In order to perform in vitro stimulations by artificial antigen presenting cells loaded with peptide-MHC complex (pMHC) and anti-CD28 antibody, the inventors first isolated CD8+ T cells from fresh HLA-A*02 leukapheresis products via positive selection using CD8 microbeads (Miltenyi Biotec, Bergisch-Gladbach, Germany) of healthy donors obtained from the University clinics Mannheim, Germany, after informed consent.
# PBMCs and isolated CD8+ lymphocytes were incubated in T-cell medium (TCM) until use consisting of RPMI-Glutamax (Invitrogen, Karlsruhe, Germany) supplemented with 10% heat inactivated human AB serum (PAN-Biotech, Aidenbach, Germany), 100 U/ml Penicillin/100 μg/ml Streptomycin (Cambrex, Cologne, Germany), 1 mM sodium pyruvate (CC Pro, Oberdorla, Germany), 20 μg/ml Gentamycin (Cambrex). 2.5 ng/ml IL-7 (PromoCell, Heidelberg, Germany) and 10 U/ml IL-2 (Novartis Pharma, Nürnberg, Germany) were also added to the TCM at this step.
# Generation of pMHC/anti-CD28 coated beads, T-cell stimulations and readout was performed in a highly defined in vitro system using four different pMHC molecules per stimulation condition and 8 different pMHC molecules per readout condition.
# The purified co-stimulatory mouse IgG2a anti human CD28 Ab 9.3 (Jung et al., 1987) was chemically biotinylated using Sulfo-N-hydroxysuccinimidobiotin as recommended by the manufacturer (Perbio, Bonn, Germany). Beads used were 5.6 μm diameter streptavidin coated polystyrene particles (Bangs Laboratories, Illinois, USA).
# pMHC used for positive and negative control stimulations were A*0201/MLA-001 (peptide […] (SEQ ID NO. 664) from modified Melan-A/MART-1) and A*0201/DDX5-001 ([…] from DDX5, SEQ ID NO. 665), respectively.
# 800.000 beads/200 μl were coated in 96-well plates in the presence of 4×12.5 ng different biotin-pMHC, washed and 600 ng biotin anti-CD28 were added subsequently in a volume of 200 μl. Stimulations were initiated in 96-well plates by co-incubating 1×10^6 CD8+ T cells with 2×10^5 washed coated beads in 200 μl TCM supplemented with 5 ng/ml IL-12 (PromoCell) for 3 days at 37° C. Half of the medium was then exchanged by fresh TCM supplemented with 80 U/ml IL-2 and incubating was continued for 4 days at 37° C. This stimulation cycle was performed for a total of three times. For the pMHC multimer readout using 8 different pMHC molecules per condition, a two-dimensional combinatorial coding approach was used as previously described (Andersen et al., 2012) with minor modifications encompassing coupling to 5 different fluorochromes. Finally, multimeric analyses were performed by staining the cells with Live/dead near IR dye (Invitrogen, Karlsruhe, Germany), CD8-FITC antibody clone SK1 (BD, Heidelberg, Germany) and fluorescent pMHC multimers. For analysis, a BD LSRII SORP cytometer equipped with appropriate lasers and filters was used. Peptide specific cells were calculated as percentage of total CD8+ cells. Evaluation of multimeric analysis was done using the FlowJo software (Tree Star, Oreg., USA). In vitro priming of specific multimer+CD8+ lymphocytes was detected by comparing to negative control stimulations. […]
# HLA-A*02:01 = HLA-A*02:01 (Homo sapiens, UniProt P04439, D140Y/D185E/D98H/E176V/E277Q/G131W/G231S/I119V/I121R/I166T/I218V/L300P/L318F/N151K/N90K/P208A/P217A/Q86G/Q94H/R138H/R169H/T345S); test: MHC binding assay (UV-ligand exchange, ELISA, peptide exchange yield); details: binding of HLA-class I restricted peptides to HLA-A*02:01
# Outline: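 Exchange yield was quantified as stabilized β2m-containing complex: monomers diluted 100-fold bound to streptavidin-coated wells, probed with HRP-conjugated anti-β2m, read at 450 nm after TMB. Complexes had been generated by UV cleavage of a photolabile ligand and replacement with the candidate peptide.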
Substance,Wells positive [%] (CD8+ T cells),"Peptide exchange (MHC class I binding score, peptide exchange yield) (HLA-A*02:01)","in vitro immunogenicity, donors (CD8+ T cells; percentage of positive donors)","in vitro immunogenicity, wells (CD8+ T cells; percentage of positive wells)"
3 (SLASKLTTL; listed as Homo sapiens) [compound 3],″+″ (<20% = +),″++++″ (≥75% = ++++),–,–
8 (FTLGNVVGMYL; listed as Homo sapiens) [compound 8],″+″ (<20% = +),″++++″ (≥75% = ++++),–,–
11 (KIFEMLEGV; listed as Homo sapiens) [compound 11],″+″ (<20% = +),″+++″ (≥50% = +++),–,–
36 (YVLEDLEVTV; listed as Homo sapiens) [compound 36],″+″ (<20% = +),″++″ (≥20% = ++),–,–
38 (FLLEDDIHVS; listed as Homo sapiens) [compound 38],″+″ (<20% = +),″+++″ (≥50% = +++),–,–
48 (ALAELYEDEV; listed as Homo sapiens) [compound 48],″+″ (<20% = +),″+++″ (≥50% = +++),–,–
56 (KLYEGIPVLL; listed as Homo sapiens) [compound 56],″+″ (<20% = +),″++++″ (≥75% = ++++),–,–
79 (SLFIGEKAVLL; listed as Homo sapiens) [compound 79],″+″ (<20% = +),″+++″ (≥50% = +++),–,–
113 (GLLPTPLFGV; listed as Homo sapiens) [compound 113],″+″ (<20% = +),″+++″ (≥50% = +++),–,–
118 (KLIDNNINV; listed as Homo sapiens) [compound 118],″+″ (<20% = +),″+++″ (≥50% = +++),–,–
141 (YLDFSNNRL; listed as Homo sapiens) [compound 141],″+″ (<20% = +),″++″ (≥20% = ++),–,–
143 (LLLDITPEI; listed as Homo sapiens) [compound 143],″+″ (<20% = +),″++++″ (≥75% = ++++),–,–
150 (RLWEEGEELEL; listed as Homo sapiens) [compound 150],″+″ (<20% = +),″+++″ (≥50% = +++),–,–
199 (ALQDVPLSSV; listed as Homo sapiens) [compound 199],″+″ (<20% = +),″+++″ (≥50% = +++),–,–
247 (VLLPNDLLEKV; listed as Homo sapiens) [compound 247],″+″ (<20% = +),″+++″ (≥50% = +++),–,–
283 (ALYIGDGYVIHLA; listed as Homo sapiens) [compound 283],–,″+++″ (≥50% = +++),+++ (50%-69% = +++),+ (<20% = +)
319 (SLEPQIQPV; listed as Homo sapiens) [compound 319],″+″ (<20% = +),″++″ (≥20% = ++),–,–
384 (ILFANPNIFV; listed as Homo sapiens) [compound 384],″+″ (<20% = +),″+++″ (≥50% = +++),–,–
443 (GLWEIENNPTV; listed as Homo sapiens) [compound 443],″+″ (<20% = +),″+++″ (≥50% = +++),–,–
460 (AMLEKNYKL; listed as Homo sapiens) [compound 460],″+″ (<20% = +),″++++″ (≥75% = ++++),–,–
489 (KMWEELPEVV; listed as Homo sapiens) [compound 489],″+″ (<20% = +),″+++″ (≥50% = +++),–,–
499 (KIFDIDEAEEGV; listed as Homo sapiens) [compound 499],″+″ (<20% = +),″++″ (≥20% = ++),–,–
511 (FLDPYCSASV; listed as Homo sapiens) [compound 511],″+″ (<20% = +),″++″ (≥20% = ++),–,–
603 (FLIEPEHVNTV; listed as Homo sapiens) [compound 603],″+″ (<20% = +),″++″ (≥20% = ++),–,–
